Source: ChEMBL document CHEMBL1132732, “HINT predictive analysis of binding between retinol binding protein and hydrophobic ligands” (Bioorg Med Chem Lett, 2000)

How the values were obtained:
[1] = Partition coefficient (logP); type: physicochemical; settings: octanol/water
[2] = Dissociation constant with retinol binding protein was determined

Row | logP [1] | Kd [2] [nM] | Structure (SMILES)
1 | 6.31 | 90 | CCNC(=O)/C=C(C)/C=C/C=C(C)/C=C/C1=C(C)CCCC1(C)C
2 | 8.15 | – | C/C=C(C)/C=C/C=C(C)/C=C/C1=C(C)CCCC1(C)C
3 | – | 170 | CC1=C(/C=C/C(C)=C/C=C/C(C)=C/C(=O)Nc2ccc(O)cc2)C(C)(C)CCC1 [FENRETINIDE]
4 | 6.16 | 70 | CC1=C(/C=C/C(C)=C/C=C/C(C)=C/CO)C(C)(C)CCC1 [RETINOL]
